Assay results: patent US11400107B2, “Cancer treatments” (NuCana plc, priority 2016, dated 2022)
Entries after “also recorded” stand apart in the source; their conditions may differ.

Tested on: advance progressive cancers refractory to, or relapsed on, all conventional therapies
Assay: ProGem1 dose escalation clinical study of NUC-1031
Type: in vivo, human
Parameters: CA125 level: unit not given here
Text: The following data were generated in clinical studies of NUC-1031 in human patients with advance progressive cancers that are refractory to, or have relapsed on, all conventional therapies that have been used to date. The results clearly illustrate the ability of NUC-1031 to successfully treat refractory cancers.
Although the primary objectives of the dose escalation part of the study were to determine the Recommended Phase II Dose (RP2D) and safety profile, secondary objectives included determining the PK profile, however effective treatment of patients with a range of refractory cancers has also been observed as part of this study.
A total of 68 patients have been entered into this dose escalation study, of which 49 were evaluable for clinical response in that they have received at least 2 Cycles of NUC-1031 and were therefore eligible for a RECIST 1.1 assessment.
NUC-1031 was administered as a 5 to 30 minute intravenous slow bolus injection. • Schedule A: NUC-1031 was administered on days 1, 8, 15 of a 4 weekly Cycle. • Schedule B: NUC-1031 was administered on days 1, 5, 8, 12, 15, 19, of a 4 weekly Cycle. Evaluable Patients [n=49]
Evaluable patients were patients that received ≥2 Cycles of NUC-1031 and were therefore eligible for a RECIST 1.1 assessment at the end of Cycle 2. Where the disease response duration, measured in months, is followed by a “+” this indicates ongoing disease control as of the latest cut-off date.

[1] = Patient 004, breast cancer, 500 mg/m^2 weekly
[2] = Patient 005, ovarian cancer, 500 mg/m^2 weekly
[3] = Patient 006, cholangiocarcinoma, 375 mg/m^2 twice weekly, then 500 mg/m^2
[4] = Patient 007, colorectal cancer, 375 mg/m^2 twice weekly, then 500 mg/m^2 weekly
[5] = Patient 008, cancer of unknown primary, 375 mg/m^2 twice weekly
[6] = Patient 010, endometrial cancer, 750 then 500 mg/m^2 weekly
[7] = Patient 011, uterine carcinosarcoma, 375 mg/m^2 twice weekly
[8] = Patient 011, uterine carcinosarcoma, 375 mg/m^2 twice weekly, then 625 mg/m^2 weekly
[9] = Patient 012, cholangiocarcinoma, 375 mg/m^2 twice weekly, then 625 mg/m^2 weekly
[10] = Patient 013, cervical cancer, 750, 625, then 500 mg/m^2 weekly
[11] = Patient 017, lung cancer, 750 then 625 mg/m^2 weekly
[12] = Patient 018, lung cancer, 625 mg/m^2 weekly
[13] = Patient 021, fallopian tube cancer, 625 mg/m^2 weekly
[14] = Patient 025, mesothelioma, 725 mg/m^2 weekly
[15] = Patient 026, colorectal cancer, 725 mg/m^2 weekly
[16] = Patient 027, ovarian cancer, 725, 675, then 625 mg/m^2 weekly
[17] = Patient 029, breast cancer, 725 mg/m^2 weekly
[18] = Patient 030, ovarian cancer, 725 mg/m^2 weekly
[19] = Patient 032, oesophageal cancer, 750 mg/m^2 weekly
[20] = Patient 033, cholangiocarcinoma, 750 mg/m^2 weekly
[21] = Patient 036, renal carcinoma, 825 then 750 mg/m^2 weekly
[22] = Patient 037, pancreatic cancer, 1,000 then 900 mg/m^2 weekly

C[C@H](NP(=O)(OC[C@H]1O[C@@H](n2ccc(N)nc2=O)C(F)(F)[C@@H]1O)Oc1ccccc1)C(=O)OCc1ccccc1 (stereo partly drawn) [NUC-1031, 2′-deoxy-2′,2′-difluoro-D-cytidine-5′-O-[phenyl (benzoxy-L-alaninyl)] phosphate]
Best response to RECIST [1]: Stable Disease
Duration of response to RECIST [1]: 12 months
Best response to RECIST [2]: Stable Disease
Duration of response to RECIST [2]: 15 months
CA125 level (Patient 005, ovarian cancer, end of Cycle 6 (208 at start of study)): 140
Best response to RECIST [3]: Stable Disease
Duration of response to RECIST [3]: 3 months
CA19.9 level (Patient 006, cholangiocarcinoma, after two doses (from 125,002)): 59,285
Adverse events (grade) [4]: thrombocytopaenia (G3)
Best response to RECIST [4]: Stable Disease
Duration of response to RECIST [4]: 3 months
CEA level (Patient 007, colorectal cancer, after treatment (from 361)): 286
CA19.9 level (Patient 007, colorectal cancer, after treatment (from 3,151)): 2,957
Adverse events (grade) [5]: transient (G3) transaminitis (ALT and AST)
Best response to RECIST [5]: Stable Disease
Duration of response to RECIST [5]: 3 months
Adverse events (grade) [6]: neutropenia (G3); also recorded: transient Grade 3 anaemia
Best response to RECIST [6]: Stable Disease
Duration of response to RECIST [6]: 9 months
CA125 level (Patient 010, endometrial cancer, after treatment (from 727)): 488
Adverse events (grade) [7]: transient neutropaenia (G3); also recorded: low haemoglobin (G2)
Reduction in tumour volume [7]: 26%
Best response to RECIST [8]: Stable Disease
Duration of response to RECIST [8]: 4 months
Best response to RECIST [9]: Stable Disease
Duration of response to RECIST [9]: 8 months
Best response to RECIST [10]: Partial Response
Duration of response to RECIST [10]: 9 months
PFS [10]: 11 months
Best response to RECIST (Patient 014, mesothelioma, 750 then 625 mg/m^2 weekly): Progressive Disease
Best response to RECIST (Patient 015, cancer (unknown primary), 750, 625, then 500 mg/m^2 weekly): Partial Response
Reduction in tumour size (Patient 015, cancer (unknown primary), CT scan on 9 Jan. 2015): approximately 58%
Adverse events (grade) (Patient 015, cancer (unknown primary), Cycle 1 Day 8): thrombocytopenia (G3); also recorded: lymphopenia (G3); also recorded: neutropenia (G2)
PFS (Patient 015, cancer (unknown primary), ongoing): ≥ 24 months
Duration of response to RECIST (Patient 015, cancer (unknown primary), ongoing, 750, 625, then 500 mg/m^2 weekly): ≥ 20 months
Best response to RECIST [11]: Partial Response
Duration of response to RECIST [11]: 3 Months
PFS [11]: 10 Months
Best response to RECIST [12]: Stable Disease
Duration of response to RECIST [12]: 4 months
Best overall response [13]: Partial Response
Duration of Partial Response according to GCIG criteria [13]: 9 months
Duration of Partial Response according to RECIST [13]: 3 months
CA125 reduction from baseline (Patient 021, fallopian tube cancer, baseline to end of Cycle 6): 91%
CA125 level (Patient 021, fallopian tube cancer, end of Cycle 6 (baseline 372)): 35
Best response to RECIST (Patient 024, cancer of unknown primary, 675 mg/m^2 weekly): Progressive Disease
Best response to RECIST [14]: Stable Disease
Duration of response to RECIST [14]: 4 months
Best response to RECIST [15]: Stable Disease
Duration of response to RECIST [15]: 4 months
Adverse events (grade) (Patient 027, ovarian cancer, 725 mg/m^2, following Cycle 1 Day 1, a DLT): elevated ALT (G3)
Best response to RECIST [16]: Stable Disease
Duration of response to RECIST [16]: 8 months
Reduction in tumour volume [16]: 23%
ALT level (Patient 027, ovarian cancer, day 7 after Cycle 1 Day 1 at 725 mg/m^2 (96 at baseline)): 256 U/L
CA125 level (Patient 027, ovarian cancer, end of Cycle 6 (188 at baseline)): 99
Best response to RECIST [17]: Stable Disease
Duration of response to RECIST [17]: 4 months
Best response to RECIST [18]: Stable Disease
Duration of response to RECIST [18]: 3 months
Best response to RECIST (Patient 031, cholangiocarcinoma, 750 mg/m^2 weekly, end of Cycle 2 CT scan): Progressive Disease
Best response to RECIST [19]: Stable Disease
Duration of response to RECIST [19]: 2 months
Best response to RECIST [20]: Stable Disease
Duration of response to RECIST [20]: 3 months
Adverse events (grade) (Patient 036, renal carcinoma, 825 mg/m^2, following Cycle 5 Day 1): thrombocytopenia (G3)
Best response to RECIST [21]: Stable Disease
Duration of response to RECIST [21]: 5 months
Reduction in tumour volume (Patient 036, renal carcinoma, end of Cycle 4 CT scan): 7%
Best response to RECIST [22]: Partial Response
Duration of response to RECIST [22]: 1 month
PFS [22]: 4 months
Reduction in tumour volume (Patient 037, pancreatic cancer, CT scan on 29 Apr. 2014): 30%
CEA level (Patient 037, pancreatic cancer, after treatment (536 at baseline)): 42
CA19.9 level (Patient 037, pancreatic cancer, after treatment (15,000 at baseline)): 4,000
Reduction in tumour volume (Patient 037, pancreatic cancer, end of Cycle 2 CT scan): 18.4%
Best response to RECIST (Patient 038, ovarian cancer, 900 mg/m^2 weekly): Progressive Disease
Increase in tumour volume (Patient 038, ovarian cancer, end of Cycle 2 scan): 25%
